# Bridge positions count the residues as written; N and C are the ends. Square brackets hold non-standard residues; d marks the D form. Peptide text beside a SMILES is read from it. S5 = C=CCCC[C@](C)(N)C(=O)O
# Tests used:
# [1] = On-resin ring-closing alkyne metathesis (RCAM), alpha-methyl-alpha-alkynyl residues at i,i+4, Mo alkylidyne complex 5 (2 mg/mL, 2 x 0.5 mL), Ar bubbling to remove 2-butyne; bicyclic entries (24-29) additionally closed by RCM (Grubbs I); details: the molecule shown is the open-chain precursor, toluene, 40.0 °C, 3.0 h
# Rab8a6-176(GppNHp) = biological target: T1, Rab8a6-176(GppNHp) (Homo sapiens, UniProt P61006); test: Competition fluorescence polarization assay (displacement of labelled peptide 25); type: binding; details: for Competition with labelled peptide 25 (in words): excess of acetylated peptide added to complex of labelled peptide 25 and Rab8a6-176(GppNHp)
# T1 construct: Expression and purification of Rab8a6-176 was performed analog to full-length Rab8a; made in house
# T1 sequence (P61006 6-176): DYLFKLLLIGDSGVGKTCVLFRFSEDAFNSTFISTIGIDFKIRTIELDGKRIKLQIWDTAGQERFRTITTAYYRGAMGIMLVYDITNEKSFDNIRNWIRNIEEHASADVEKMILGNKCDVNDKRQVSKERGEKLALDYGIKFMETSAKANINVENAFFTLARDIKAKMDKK
# Experimental: Acetylated peptides were serially diluted and incubated with a mixture of the fluorescein-labelled peptide and Rab8a6–176 (GppNHp) at room temperature for 1 h. Fluorescence polarization was determined and IC50 values were calculated by nonlinear regression analysis using Prism 5.0 software (GraphPad)[64].
# Rab8a6-176 (GppNHp) was serially diluted in assay buffer and treated with 133 nM fluorescein-labeled peptide. After incubation for 4 h at room temperature the mixture was soaked into capillaries for microscale thermophoresis (MST) measurements. Kd values were calculated after initial fluorescene analysis of the obtained MST curves using the software Monolith Affinity Analysis (NanoTemper Technologies).
# Competition fluorescence polarization assay
# Acetylated peptides were serially diluted in assay buffer (1:1) and were incubated with a mixture of […] fluorescein-labeled peptide and Rab8a6-176 (GppNHp) (15 µM or 100 µM depending on Kd of the labeled peptide) for 1 h at room temperature.
# Fluorescence polarization was dertermined and half maximal inhibitory concentrations (IC50) were calculated by nonlinear regression analysis of dose-response curves using Prism 5.0 software (GraphPad).5
smiles,measurement,setting,value
CC#CCCCC[C@](C)(NC(=O)[C@H](Cc1ccccc1)NC(=O)[C@H](CCC(=O)NC(c1ccccc1)(c1ccccc1)c1ccccc1)NC(=O)[C@H](CCC(=O)OC(C)(C)C)NC(=O)[C@](C)(CCCC#CC)NC(=O)[C@H](CCC(=O)OC(C)(C)C)NC(=O)[C@H](CC(=O)OC(C)(C)C)NC(=O)[C@H](CC(=O)OC(C)(C)C)NC(=O)OCC1c2ccccc2-c2ccccc21)C(=O)N[C@@H](Cc1ccc(OC(C)(C)C)cc1)C(=O)N[C@@H](Cc1cn(C(c2ccccc2)(c2ccccc2)c2ccccc2)cn1)C(=O)N[C@@H](CC(C)C)C(=O)N[C@@H](CC(C)C)C(=O)N[C@@H](COC(C)(C)C)C(=O)N[C@@H](Cc1ccccc1)C(=O)N[C@@H](CC(=O)NC(c1ccccc1)(c1ccccc1)c1ccccc1)C(=O)N[C@@H](C)C(=O)N[C@H](C(N)=O)C(C)C,"ring closure, overall yield",[1]; 22-membered ring,12%
CC#CCCC[C@](C)(NC(=O)[C@H](Cc1ccccc1)NC(=O)[C@H](CCC(=O)NC(c1ccccc1)(c1ccccc1)c1ccccc1)NC(=O)[C@H](CCC(=O)OC(C)(C)C)NC(=O)[C@](C)(CCCC#CC)NC(=O)[C@H](CCC(=O)OC(C)(C)C)NC(=O)[C@H](CC(=O)OC(C)(C)C)NC(=O)[C@H](CC(=O)OC(C)(C)C)NC(=O)OCC1c2ccccc2-c2ccccc21)C(=O)N[C@@H](Cc1ccc(OC(C)(C)C)cc1)C(=O)N[C@@H](Cc1cn(C(c2ccccc2)(c2ccccc2)c2ccccc2)cn1)C(=O)N[C@@H](CC(C)C)C(=O)N[C@@H](CC(C)C)C(=O)N[C@@H](COC(C)(C)C)C(=O)N[C@@H](Cc1ccccc1)C(=O)N[C@@H](CC(=O)NC(c1ccccc1)(c1ccccc1)c1ccccc1)C(=O)N[C@@H](C)C(=O)N[C@H](C(N)=O)C(C)C,"ring closure, overall yield",[1]; 21-membered ring,0%
CC(=O)N[C@@H](CC(=O)O)C(=O)N[C@@H](CC(=O)O)C(=O)N[C@@H](CCC(=O)O)C(=O)N[C@@]1(C)CCC/C=C\CCC[C@@](C)(C(=O)N[C@@H](Cc2ccc(O)cc2)C(=O)N[C@@H](Cc2c[nH]cn2)C(=O)N[C@@H](CC(C)C)C(=O)N[C@@H](CC(C)C)C(=O)N[C@@H](CO)C(=O)N[C@@H](Cc2ccccc2)C(=O)N[C@@H](CC(N)=O)C(=O)N[C@@H](C)C(=O)N[C@H](C(N)=O)C(C)C)NC(=O)[C@H](Cc2ccccc2)NC(=O)[C@H](CCC(N)=O)NC(=O)[C@H](CCC(=O)O)NC1=O [acetylated StRIP3] (Ac-DDE[S5]EQF[S5]YHLLSFNAV-NH2; staple (Z) 4-8; C-terminus assumed),IC50,"Rab8a6-176(GppNHp); acetylated peptide as competitor, fluorescein-labelled peptide 25 (60 nM) bound to Rab8a(GppNHp) 15 μM, 1 h room temperature, triplicates, errors 1σ",33 µM
same,Competition with labelled peptide 25 (in words),Rab8a6-176(GppNHp),full displacement of peptide 25
CC(=O)N[C@@H](CC(=O)O)C(=O)N[C@@H](CC(=O)O)C(=O)N[C@@H](CCC(=O)O)C(=O)N[C@@H](CCCCN)C(=O)N[C@@H](CCC(=O)O)C(=O)N[C@@H](CCC(N)=O)C(=O)N[C@@H](Cc1ccccc1)C(=O)N[C@@H](CC(C)C)C(=O)N[C@@H](Cc1ccc(O)cc1)C(=O)N[C@@H](Cc1c[nH]cn1)C(=O)N[C@@H](CC(C)C)C(=O)N[C@@H](CC(C)C)C(=O)N[C@@H](CO)C(=O)N[C@@H](Cc1ccccc1)C(=O)N[C@@H](CC(N)=O)C(=O)N[C@@H](C)C(=O)N[C@H](C(N)=O)C(C)C [wt-R6IP] (Ac-DDEKEQFLYHLLSFNAV-NH2; N-terminus and C-terminus assumed),Competition with labelled peptide 25 (in words),Rab8a6-176(GppNHp),does not compete with peptide 25

# From PMC4834642, “Orthogonal ring-closing alkyne and olefin metathesis for the synthesis of small GTPase-targeting bicyclic peptides” (Nature Communications, 2016)
